Measured values taken from patent publication US11464749B2, “Bismuth-thiol compositions and methods of use” (Microbion Corporation, priority 2018, dated 2022).
Entries after “also recorded” stand apart in the source; their conditions may differ. Like-named read-outs stand apart in the source and are kept apart here.

Columns and labels:
[1] = test system: M. avium; experiment: MIC against CF bacterial strains (Example 5); assay type: cell-based, Mycobacterium avium
Protocol: (§1) A range of CF-isolated strains of Mycobacterium avium and Mycobacterium abscessus were included; which allows for understanding of the activity against non-tubercular Mycobacteria (NTM). Two distinct bismuth-thiol compounds were evaluated, including BisEDT and BisBDT. […] The CF-isolates of greater clinical relevance, including both M abscessus spp. and Burkholderia spp., were both consistently found to be much more susceptible to BisEDT and BisBDT.

[2] = test system: B. cepacia (cepacia complex); experiment: MIC against CF bacterial strains (Example 5); assay type: cell-based; settings: Burkholderia cepacia
Protocol: as §1

[3] = test system: B. cepcacia complex (not further speciated); experiment: MIC against CF bacterial strains (Example 5); assay type: cell-based; settings: beta lactam-S, TMP/SMX-S
Protocol: as §1

[4] = test system: B. dolosa (cepacia complex); experiment: MIC against CF bacterial strains (Example 5); assay type: cell-based; settings: Burkholderia dolosa; strain BC 11, CF isolate, beta lactam-R, TMP/SMX-S, FQ-R
Protocol: as §1

[5] = test system: B. multivorans (cepacia complex); experiment: MIC against CF bacterial strains (Example 5); assay type: cell-based; settings: Burkholderia multivorans
Protocol: as §1

[6] = test system: Candida glabrata; experiment: Broth microdilution antifungal susceptibility (Example 13); assay type: cell-based; settings: Nakaseomyces glabratus
[7] = test system: Achromobacter spp.; experiment: MIC against CF bacterial strains (Example 5)
[8] = test system: fully differentiated human airway epithelium (MUCILAIR™); experiment: Acute toxicity on […] (LDH release, TEER, morphology); assay type: cell-based
Protocol: Controlled in vitro evaluation of BisEDT, with respect to potential cytotoxicity on fully differentiated human airway epithelium was carried out. Both solubilized and solid (powder/particulate) forms of BisEDT were evaluated for cytotoxicity by Epithelix, a contract research organization (CRO) specializing in this form of cytotoxicity evaluation utilizing a proprietary, in vitro fully differentiated human airway epithelium test system ([…]™) The […]™ system facilitated evaluation of cytotoxicity through both LDH release (from the culture medium side) and trans-epithelial electrical resistance (TEER) from the apical/air-exposed side as well as pre- and post-exposure microscopic examination for morphological changes (FIG. 13).
The assay system used in this study is Epithelix's proprietary technology […]™ […]™ is a fully differentiated and ready-to-use 3D model of human airway epithelium, constituted with primary human epithelial cells freshly isolated from nasal, tracheal or bronchial biopsies. […]™ (FIG. 24), is not only morphologically and functionally differentiated, but can also be maintained in a homeostatic state for a long period of time (Huang et al., 2009).
[…]™ is composed of basal cells, ciliated cells and mucus cells. The proportion of these various cell types is preserved compared to what one observes in vivo (Huang et al., 2011). Moreover the epithelia are started from de-differentiated cells. The cells undergo a progressive differentiation with time. After 45 days of culture, the epithelia are fully ciliated, secret mucus and are electrically tight (TEER>200 Ω.cm^2). The activity of the main epithelial ionic channels, such as CFTR, EnaC, Na/K ATPase, is preserved and the epithelia is shown to respond in a regulated and vectorial manner to the pro-inflammatory stimulus, TNF-α (Huang et al., 2011). A large panel of cytokines, chemokines and metalloproteinases has been detected in […]™ (e.g. IL-8, IL-6, GM-CSF, MMP-9, GRO-α).
BisEDT (MB-1-B3) was applied on the apical surface of […]™ during 1, 8, 24 and 48 hours (FIG. 13). The effect of 6 concentrations was studied: 0.001, 0.01, 0.1, 1, 10 and 30 μM. […] 30 μl solution at the selected concentration was applied on the apical surface of […]™. The negative control corresponds to the vehicle solution (0 μM) and untreated cultures. The positive control corresponds to 50 μl to 10% Triton X-100 diluted in a buffered saline solution. The study was run in triplicates.
During the study, inserts were maintained in a CO2 incubator (37° C., 5% CO2, 100% humidity). The following end-points were determined: • Tissue integrity monitoring: Trans-Epithelial Electrical Resistance (TEER) measurement (quantitative) at D0, D1 and D2. • Cytotoxicity monitoring: LDH test (quantitative) at D0, D1 and D2. • Morphology: cellular and tissue integrity examined under contrast microscope at D0, D1 and D2.
Three days before the experiment, the following quality controls were performed on each epithelium: • Washing: inserts were washed with 200 μl of […]™ culture medium. Washing removes accumulated mucus on the tissue surface which may interfere with the test. • Trans-Epithelial Electrical Resistance (TEER): TEER was measured to verify that all the selected inserts had tight epithelial barriers and the tissue itself was not disrupted prior to application of the test material. • Tissue morphology: each insert was inspected under a conventional inverted microscope to ensure the quality of the epithelia and determine qualitatively that cilia motion was visible. The presence of mucus was detected by the refractive aspect of the apical surface. Results
Compound BisEDT was applied on the apical surface of […]™. The effect of 5 concentrations after 1, 8,24 and 48 hours exposure was studied: 0.033, 0.33, 3.33, 33.3, 333 μg/cm^2. […]

[9] = solid, 0.033 and 0.33 μg/cm^2, all tested time points
[10] = solution, all tested concentrations and time points

With `CC(S)C(C)S.[Bi]` (centres unmarked) [BisBDT, bismuth-2,3-butanedithiol] the MIC ([1]; Mycobacterium avium) was greater than 16 µg/mL, the MIC ([1]; strain MAC101, MAC reference strain, blood isolate from HIV patient) was 1 µg/mL and the MIC ([2]; strain BC17) was 8 µg/mL. It also gave an MIC ([2]; strain BC 17, CF isolate, beta lactam-R, TMP/SMX-R, FQ-R) of 4 µg/mL, an MIC ([3]; strain BC 9, CF isolate, FQ-R) of 0.5 µg/mL and an MIC ([3]; strain PC 213, CF isolate, FQ-S) of 1 µg/mL. The MIC [4] was 0.5 µg/mL, the MIC ([5]; strain BC 5, CF isolate, beta lactam-S, TMP/SMX-S, FQ-I) was 2 µg/mL and the MIC ([5]; strain BC5b) was 1 µg/mL. For the same molecule, the MIC ([6]; ATCC90030, read-out: MIC0 (complete inhibition), isolate ATCC 90030 (Susceptible)) was 1 µg/mL, the MIC ([6]; ATCC90030, read-out: MIC2 (50% inhibition), isolate ATCC 90030 (Susceptible)) was 0.5 µg/mL and the MIC ([6]; read-out: MIC0 (complete inhibition), isolate ATCC MYA-2950 (Susceptible)) was 1 µg/mL. The MIC ([6]; read-out: MIC0 (complete inhibition), isolate MMX 7087 (Susceptible)) was 1 µg/mL, the MIC ([6]; read-out: MIC0 (complete inhibition), isolate MMX 7093 (FLU-R)) was 2 µg/mL and the MIC ([6]; read-out: MIC0 (complete inhibition), isolate MMX 7101 (FLU-R)) was 1 µg/mL. It also gave an MIC ([6]; read-out: MIC0 (complete inhibition), isolate MMX 7103 (CASP-R, MICA-R)) of 1 µg/mL, an MIC ([6]; read-out: MIC0 (complete inhibition), isolate MMX 7111 (Susceptible)) of 1 µg/mL and an MIC ([6]; read-out: MIC0 (complete inhibition), isolate MMX 7285 (CASP-R, MICA-R)) of 0.5 µg/mL. The MIC ([6]; read-out: MIC0 (complete inhibition), isolate MMX 7307 (CASP-R, MICA-R, FLU-R)) was 1 µg/mL, the MIC ([6]; read-out: MIC0 (complete inhibition), isolate MMX 7549 (Susceptible)) was 1 µg/mL and the MIC ([6]; read-out: MIC2 (50% inhibition), isolate ATCC MYA-2950 (Susceptible)) was 0.5 µg/mL. For the same molecule, the MIC ([6]; read-out: MIC2 (50% inhibition), isolate MMX 7087 (Susceptible)) was 0.5 µg/mL, the MIC ([6]; read-out: MIC2 (50% inhibition), isolate MMX 7093 (FLU-R)) was 1 µg/mL and the MIC ([6]; read-out: MIC2 (50% inhibition), isolate MMX 7101 (FLU-R)) was 0.5 µg/mL. For the same molecule, the MIC ([6]; read-out: MIC2 (50% inhibition), isolate MMX 7103 (CASP-R, MICA-R)) was 0.5 µg/mL, the MIC ([6]; read-out: MIC2 (50% inhibition), isolate MMX 7111 (Susceptible)) was 0.5 µg/mL and the MIC ([6]; read-out: MIC2 (50% inhibition), isolate MMX 7285 (CASP-R, MICA-R)) was 0.25 µg/mL. It also gave an MIC ([6]; read-out: MIC2 (50% inhibition), isolate MMX 7307 (CASP-R, MICA-R, FLU-R)) of 0.5 µg/mL, an MIC ([6]; read-out: MIC2 (50% inhibition), isolate MMX 7549 (Susceptible)) of 0.5 µg/mL and an MIC [7] of 0.5 µg/mL. For the same molecule, the MIC ([7]; Achromobacter) was 1 µg/mL.
For `C1C[S][Bi]([S]CC[S][Bi]2[S]CC[S]2)[S]1` [BisEDT, bismuth-1,2-ethanedithiol], the “toxic effects (morphology, LDH release, TEER), BisEDT in solution” value ([8]; 0.001-30 μM (30 uM = 20.83 ug/mL) apical, 1, 8, 24, 48 hours) was “no toxic effects were observed; also recorded: no local toxicity”, the “toxic effects (morphology, LDH release, TEER), particulate BisEDT in dextran” value ([8]; lower two concentrations (0.033, 0.33 μg/cm^2), up to 48 hours) was “no toxic effects were observed” and the “TEER (tissue integrity)” value ([8]; solid, 1 μg/cm^2, 8, 24 and 48H) was “Loss of tissue integrity”. For the same molecule, the “LDH release (cytotoxicity)” value ([8]; solid, 1 μg/cm^2, 8, 24 and 48 h) was “time- and dose-dependent cytotoxicity”, the “LDH release (cytotoxicity)” value ([8]; solid, 1 μg/cm^2, 1 hour) was “No significant effect” and the “TEER (tissue integrity)” value ([8]; solid, 1 μg/cm^2, 1 hour) was “no significant effect”. The Morphology after exposure ([8]; solid, 1 μg/cm^2, 1 hour and 8 hour) was “no important morphological changes were observed”, the Morphology after exposure ([8]; solid, 1 μg/cm^2, 24 h) was “epithelial cells on 2 inserts out of 3 were dead” and the Morphology after exposure ([8]; solid, 1 μg/cm^2, 48 h) was “epithelial cells on all 3 inserts were dead”. For the same molecule, the Morphology after exposure ([8]; solid, 3.33 μg/cm^2, 24 and 48 h) was “Cells were rounded and opaque at the periphery of inserts”, the Morphology after exposure ([8]; solid, 0.033 and 0.33 μg/cm^2) was “No morphological modifications were observed” and the “LDH release (cytotoxicity)” value [8, 9] was “No significant effect”. The “TEER (tissue integrity)” value [8, 9] was “No significant effect”, the “cytotoxicity (LDH increase, TEER reduction)” value ([8]; solid, 1 and 3.33 μg/cm^2, 24 h and 48 h) was “induces cytotoxicity” and the “LDH release (cytotoxicity)” value ([8]; solid, 3.3, 33.3 and 333 μg/cm^2, beyond 1 hour) was “time and dose dependent increase in LDH release; also recorded: time and dose dependent, cytotoxicity”. The “TEER (tissue integrity)” value ([8]; solid, 3.33, 33.3 and 333 μg/cm^2, 8, 24 and 48H exposure) was “Loss of tissue integrity”, the “toxicity (LDH, TEER, morphology)” value ([8]; solid, 33.3, 333 μg/cm^2) was “strong toxicity” and the Morphology after exposure ([8]; solid, 33.3 and 333 μg/cm^2, 8, 24 and 48 h) was “Cells were rounded and opaque on the inserts”. For the same molecule, the “TEER (tissue integrity)” value ([8]; solid, all tested doses, 1 hour exposure) was “no significant effect”, the Morphology after exposure [8, 10] was “No morphology changes were observed” and the “TEER (tissue integrity)” value [8, 10] was “didn't show significant effect”. For the same molecule, the “LDH release (cytotoxicity)” value ([8]; solution, all tested concentrations and time-points) was “not altered”.
